Measured values from article PMC6471485, “Selective Inhibitors of a Human Prolyl Hydroxylase (OGFOD1) Involved in Ribosomal Decoding” (Chemistry (Weinheim an Der Bergstrasse, Germany), 2019).
Entries after “also recorded” stand apart in the source; their conditions may differ.

How the values were obtained:
FIH = FIH (Homo sapiens, UniProt Q9NWT6); experiment: FIH assay, MALDI-TOF MS detection of hydroxylation; type: biochemical
KDM4A = molecular target: T1, KDM4A (Homo sapiens, UniProt O75164); experiment: KDM4A formaldehyde dehydrogenase (FDH) assay; type: biochemical
T1 sequence (O75164 1-1064): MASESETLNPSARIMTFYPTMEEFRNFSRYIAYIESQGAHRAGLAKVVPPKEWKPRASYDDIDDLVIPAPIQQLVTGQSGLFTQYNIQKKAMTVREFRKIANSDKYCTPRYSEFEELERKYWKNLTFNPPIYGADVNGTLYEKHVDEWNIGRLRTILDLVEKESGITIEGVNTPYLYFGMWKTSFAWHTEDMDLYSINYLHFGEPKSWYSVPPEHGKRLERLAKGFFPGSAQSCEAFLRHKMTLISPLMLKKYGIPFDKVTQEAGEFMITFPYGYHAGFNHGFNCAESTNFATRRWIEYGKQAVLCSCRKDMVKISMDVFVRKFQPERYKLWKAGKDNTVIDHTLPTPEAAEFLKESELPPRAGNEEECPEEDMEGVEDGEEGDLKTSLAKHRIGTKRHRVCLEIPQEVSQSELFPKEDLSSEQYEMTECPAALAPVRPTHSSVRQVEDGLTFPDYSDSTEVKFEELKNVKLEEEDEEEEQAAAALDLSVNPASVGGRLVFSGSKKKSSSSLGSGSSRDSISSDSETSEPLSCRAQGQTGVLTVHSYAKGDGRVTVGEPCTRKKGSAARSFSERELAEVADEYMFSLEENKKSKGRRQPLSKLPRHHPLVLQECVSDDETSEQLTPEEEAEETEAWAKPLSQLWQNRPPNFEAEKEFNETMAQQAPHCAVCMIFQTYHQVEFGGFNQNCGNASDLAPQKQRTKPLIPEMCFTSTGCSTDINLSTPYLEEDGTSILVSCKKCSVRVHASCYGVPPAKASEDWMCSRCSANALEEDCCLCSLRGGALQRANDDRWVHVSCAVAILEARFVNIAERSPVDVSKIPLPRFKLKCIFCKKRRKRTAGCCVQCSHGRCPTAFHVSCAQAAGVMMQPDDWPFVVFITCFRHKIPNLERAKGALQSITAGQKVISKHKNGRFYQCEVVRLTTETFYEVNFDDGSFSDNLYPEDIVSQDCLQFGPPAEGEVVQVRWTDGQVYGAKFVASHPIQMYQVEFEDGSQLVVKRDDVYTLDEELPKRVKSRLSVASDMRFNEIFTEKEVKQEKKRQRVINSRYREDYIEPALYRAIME
Method: reactions were quenched after 4 min. KDM4A inhibition was tested as described previously using a formaldehyde dehydrogenase (FDH) assay.[9] JARID1B and JARID1C inhibition was tested as described previously using reported AlphaScreen-based assays.[10] MINA531-464 and NO66116-641 were cloned into pFB-LIC-Bse, and the N-terminal His-tagged proteins were produced in Sf9 insect cells. The MINA53 peptide substrate Rpl27a […]
(Gly31 – Pro49 […]) and the NO66 peptide substrate Rpl8
(Asn205 – Thr224 […]) were synthesized by Peptide Protein
Research Ltd (Fareham, Hampshire, UK) to >95% purity. IC50 determinations were performed in 384-well polypropylene plates (Greiner Bio One, Cat Number 781096), and compound dispenses were performed using an ECHO 550 acoustic dispenser (Labcyte, Sunnyvale, CA).
NO66 (diluted to 375 nM in 50 mM MES pH 7.0, 150 mM NaCl) and MINA53 (diluted to 187.5 nM in 50 mM HEPES pH 7.5, 50 mM NaCl) were dispensed (40 µL) into 384-well compound plates using a multidrop combi reagent dispenser (Thermo Scientific, Code 5840300) with a small tube plastic tip dispensing cassette (Thermo Scientific, Code 24073290).
NO66 and MINA53 were pre-incubated with compound for 15 minutes, and the enzyme reaction initiated by dispensing 10 µL of substrate solution [250 µM (NH4)2Fe(SO4)2, 500 µM sodium ascorbate, 25 µM 2OG, 25 µM peptide] in optimized enzyme buffer. […]

PHD2181-426 = molecular target: T2, PHD2181-426 (Homo sapiens, UniProt Q9GZT9); experiment: wLOGSY NMR binding experiment with PHD2; conditions: 400 µM inhibitor, 50 µM PHD2
T2 construct: 181-426 (1 µM) was
T2 sequence (Q9GZT9 181-426 limits assumed): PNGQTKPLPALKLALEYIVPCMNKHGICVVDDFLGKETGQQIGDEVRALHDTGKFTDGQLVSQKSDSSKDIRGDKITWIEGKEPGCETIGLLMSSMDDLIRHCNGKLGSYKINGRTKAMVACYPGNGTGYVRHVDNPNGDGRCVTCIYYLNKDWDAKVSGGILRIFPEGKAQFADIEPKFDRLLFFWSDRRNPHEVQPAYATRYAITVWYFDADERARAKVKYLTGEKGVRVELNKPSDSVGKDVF

[1] = test system: PHD enzymes in HeLa cells; experiment: HIFα Western blot in HeLa cells (activity of PHD enzymes in cells); type: cell-based, human; conditions: HeLa cells treated 5 h, anti-HIF-1α Western blot
Method: supplemented with 80 µM Zn(II), 70 µM of inhibitor, all in 50 mM Tris-d11, pH 7.5, 10 % D2O, […]
Cell Culture and Immunoblotting
HeLa cells were cultured in DMEM media supplemented with 10 % fetal bovine serum, 4 mM L-glutamine, 100 U/mL penicillin, and 100 µg/mL streptomycin. Cells were treated with the indicated compounds, prepared in 1% DMSO, for 5 h. Following a PBS buffer rinse, cells were lysed in urea/SDS buffer supplemented with 1 mM dithiothreitol. Cell extracts were analyzed by SDS-PAGE, electroblotted onto PVDF membranes (Millipore) and probed with anti-HIF-1α antibody (clone 54, BD Transduction Laboratories) at 1:1000 dilution for 1 h at room temperature. The HRP-conjugated secondary antibody was then applied at room temperature for 1 h. Target proteins were detected with SuperSignal Chemiluminescent […]
ADMET in vitro Predictors
S9 liver microsome stability assays and MDCK-MDR1 efflux assays were carried out for CCT3 and CCT4 by Cyprotex (UK). Additional details are provided later in the Supporting

Chain of FIH (Q9NWT6 whole entry): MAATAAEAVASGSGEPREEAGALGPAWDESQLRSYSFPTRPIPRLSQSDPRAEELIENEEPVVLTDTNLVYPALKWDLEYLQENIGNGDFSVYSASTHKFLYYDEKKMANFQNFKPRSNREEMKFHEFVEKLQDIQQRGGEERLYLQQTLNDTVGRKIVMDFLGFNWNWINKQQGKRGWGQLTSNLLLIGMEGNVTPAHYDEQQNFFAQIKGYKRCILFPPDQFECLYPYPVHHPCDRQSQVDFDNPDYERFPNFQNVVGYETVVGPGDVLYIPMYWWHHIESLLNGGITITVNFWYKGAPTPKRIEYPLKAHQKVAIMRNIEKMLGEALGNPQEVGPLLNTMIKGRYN

SMILES | IC50 (FIH) [µM] | IC50 (KDM4A) [µM] | binding to PHD2 by wLOGSY NMR, in words (PHD2181-426; listed as CCT3) | HIFα stabilization in HeLa cells, in words [1] | binding to PHD2 by wLOGSY NMR, in words (PHD2181-426; listed as CCT4)
Cn1c(O)c(C(=O)CCc2ccccc2)c(=O)n(C)c1=O [compound 26] | > 100 | > 100 | weaker; also recorded: only weak binding to PHD2 | did not stabilize HIFα | –
Cn1c(O)c(C(=O)CCc2cccs2)c(=O)n(C)c1=O [compound 42] | > 100 | > 100 | – | did not stabilize HIFα | weaker; also recorded: only weak binding to PHD2
